Earlier results in patent US10306887B2, “Composition and methods for modulation of the octopamine receptor and its homologs” (THE BOARD OF REGENTS OF THE UNIVERSITY OF TEXAS SYSTEMS, priority 2014, dated 2019).
“Also recorded” adds a separate entry of the source.

Key:
[1] = test system: mated tdc2 or tβh females
[2] = test system: dissected reproductive system

For NCC(O)c1ccc(O)cc1 (stereo not drawn) [OA, β,4-dihydroxyphenethylamine], the egg-laying ([1]; OA feeding, mated tdc2 or tβh mutant females) is given as “sufficient to induce egg-laying”, the sterility ([1]; feeding OA to mated tβh mutant females) is given as “rescues sterility” and the “muscle contractions in the ovary” value ([2]; OA applied to dissected reproductive system, ovary) is given as “enhances muscle contractions in the ovary”. The “muscle contractions in the oviduct” value ([2]; OA applied to reproductive system, oviduct) was “inhibits them in the oviduct; also recorded: relaxes the oviduct muscle”.
